Laboratory results reported in the supplement of paper PMC10307832.

Assays:
Assay in all cases: relative viability (nuclei count vs DMSO), 5 days (fraction); higher = more cells survive
[1] = system: HCC-15
Method in brief: (§1)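 Nuclei were stained with Hoechst during a one-step fixation (final 0.05% Triton X-100, 1% formaldehyde, 1 ug/ml Hoechst) carried out 5 days after dosing, then counted on 4× images. The cells, lung cancer lines in 1536-well plates, had been dosed by pin tool the day after seeding with one drug alone or a fixed anchor-drug dose plus five library-drug doses (not always all listed) in √10 steps. Relative viability is the nuclei count in treated wells divided by that in vehicle wells, and each value is the median of duplicate plates.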

[2] = system: UMC-11
Method in brief: as §1

[3] = system: LCLC-103H
Method in brief: as §1

[4] = system: NCI-H1623
Method in brief: as §1

[5] = system: NCI-H522
Method in brief: as §1

Q: Which relative viability ([1]; first compound 0.08 µM) does the source give for `C=C1C(=O)O[C@@H](CCCCCCCC)[C@@H]1C(=O)O` [C-75] + CCNC(=O)c1noc(-c2cc(C(C)C)c(O)cc2O)c1-c1ccc(CN2CCOCC2)cc1 [Luminespib] (partner 0.01 µM) here?
A: Its relative viability is 0.303.

Q: What about the relative viability ([1]; first compound 0.253 µM) of the same compound?
A: Its relative viability is 0.271.

Q: And the relative viability ([1]; first compound 0.8 µM)?
A: The relative viability was 0.148.

Q: And the relative viability ([1]; first compound 2.53 µM)?
A: Its relative viability is 0.345.

Q: What about the relative viability ([1]; first compound 8 µM) of the same compound?
A: Its relative viability is 0.196.

Q: What about the relative viability ([2]; first compound 0.08 µM) of the same compound?
A: Its relative viability is 0.992.

Q: And the relative viability ([2]; first compound 0.253 µM)?
A: The relative viability was 1.01.

Q: What about the relative viability ([2]; first compound 0.8 µM) of the same compound?
A: Its relative viability is 1.03.

Q: What about the relative viability ([2]; first compound 2.53 µM) of the same compound?
A: The relative viability was 0.712.

Q: What about the relative viability ([2]; first compound 8 µM) of the same compound?
A: Its relative viability is 0.742.

Q: What about the relative viability ([3]; first compound 0.08 µM) of the same compound?
A: The relative viability was 0.912.

Q: What about the relative viability ([3]; first compound 0.253 µM) of the same compound?
A: The relative viability was 1.02.

Q: What about the relative viability ([3]; first compound 0.8 µM) of the same compound?
A: The relative viability was 0.83.

Q: And the relative viability ([3]; first compound 2.53 µM)?
A: Its relative viability is 0.932.

Q: What about the relative viability ([3]; first compound 8 µM) of the same compound?
A: The relative viability was 0.888.

Q: And the relative viability ([4]; first compound 0.08 µM)?
A: Its relative viability is 0.436.

Q: And the relative viability ([4]; first compound 0.253 µM)?
A: Its relative viability is 0.536.

Q: What about the relative viability ([4]; first compound 0.8 µM) of the same compound?
A: The relative viability was 0.585.

Q: What about the relative viability ([4]; first compound 2.53 µM) of the same compound?
A: Its relative viability is 0.505.

Q: What about the relative viability ([4]; first compound 8 µM) of the same compound?
A: The relative viability was 0.475.

Q: What about the relative viability ([5]; first compound 0.08 µM) of the same compound?
A: Its relative viability is 1.06.

Q: What about the relative viability ([5]; first compound 0.253 µM) of the same compound?
A: Its relative viability is 1.04.

Q: What about the relative viability ([5]; first compound 0.8 µM) of the same compound?
A: The relative viability was 1.06.

Q: What about the relative viability ([5]; first compound 2.53 µM) of the same compound?
A: Its relative viability is 0.904.

Q: And the relative viability ([5]; first compound 8 µM)?
A: The relative viability was 0.911.

Q: What does the source list for `CC1(C)CCC(c2ccc(Cl)cc2)=C(CN2CCN(c3ccc(C(=O)NS(=O)(=O)c4ccc(N[C@H](CCN5CCOCC5)CSc5ccccc5)c(S(=O)(=O)C(F)(F)F)c4)cc3)CC2)C1` [Navitoclax] + CCNC(=O)c1noc(-c2cc(C(C)C)c(O)cc2O)c1-c1ccc(CN2CCOCC2)cc1 [Luminespib] (partner 0.01 µM)?
A: relative viability ([1]; first compound 0.005 µM): 0.299; relative viability ([1]; first compound 0.01581 µM): 0.284; relative viability ([1]; first compound 0.05 µM): 0.546; relative viability ([1]; first compound 0.1581 µM): 0.352; relative viability ([1]; first compound 0.5 µM): 0.256; relative viability ([2]; first compound 0.005 µM): 0.986; relative viability ([2]; first compound 0.01581 µM): 1.07; relative viability ([2]; first compound 0.05 µM): 1.13; relative viability ([2]; first compound 0.1581 µM): 1.05; relative viability ([2]; first compound 0.5 µM): 0.829; relative viability ([3]; first compound 0.005 µM): 1.04; relative viability ([3]; first compound 0.01581 µM): 1.03; relative viability ([3]; first compound 0.05 µM): 1.08; relative viability ([3]; first compound 0.1581 µM): 1.02; relative viability ([3]; first compound 0.5 µM): 0.884; relative viability ([4]; first compound 0.005 µM): 0.478; relative viability ([4]; first compound 0.01581 µM): 0.631; relative viability ([4]; first compound 0.05 µM): 0.463; relative viability ([4]; first compound 0.1581 µM): 0.515; relative viability ([4]; first compound 0.5 µM): 0.471; relative viability ([5]; first compound 0.005 µM): 1.07; relative viability ([5]; first compound 0.01581 µM): 1.25; relative viability ([5]; first compound 0.05 µM): 1.04; relative viability ([5]; first compound 0.1581 µM): 1.19; relative viability ([5]; first compound 0.5 µM): 1.36

Q: What does the source list for `CC1(C)CCC(c2ccc(Cl)cc2)=C(CN2CCN(c3ccc(C(=O)NS(=O)(=O)c4ccc(N[C@H](CCN5CCOCC5)CSc5ccccc5)c(S(=O)(=O)C(F)(F)F)c4)cc3)CC2)C1` [Navitoclax] + Cc1nc(Nc2ncc(C(=O)Nc3c(C)cccc3Cl)s2)cc(N2CCN(CCO)CC2)n1 [Dasatinib] (partner 0.075 µM)?
A: relative viability ([1]; first compound 0.005 µM): 0.619; relative viability ([1]; first compound 0.01581 µM): 0.643; relative viability ([1]; first compound 0.05 µM): 0.577; relative viability ([1]; first compound 0.1581 µM): 0.572; relative viability ([1]; first compound 0.5 µM): 0.392; relative viability ([2]; first compound 0.005 µM): 0.451; relative viability ([2]; first compound 0.01581 µM): 0.464; relative viability ([2]; first compound 0.05 µM): 0.502; relative viability ([2]; first compound 0.1581 µM): 0.471; relative viability ([2]; first compound 0.5 µM): 0.324; relative viability ([3]; first compound 0.005 µM): 0.468; relative viability ([3]; first compound 0.01581 µM): 0.496; relative viability ([3]; first compound 0.05 µM): 0.31; relative viability ([3]; first compound 0.1581 µM): 0.539; relative viability ([3]; first compound 0.5 µM): 0.474; relative viability ([4]; first compound 0.005 µM): 0.546; relative viability ([4]; first compound 0.01581 µM): 0.578; relative viability ([4]; first compound 0.05 µM): 0.518; relative viability ([4]; first compound 0.1581 µM): 0.539; relative viability ([4]; first compound 0.5 µM): 0.618; relative viability ([5]; first compound 0.005 µM): 0.685; relative viability ([5]; first compound 0.01581 µM): 1.02; relative viability ([5]; first compound 0.05 µM): 1.17; relative viability ([5]; first compound 0.1581 µM): 1.06; relative viability ([5]; first compound 0.5 µM): 0.816
